Key:
Phakopsora pachyrhizi = assay: Test D: preventive spray on soybean seedlings, Asian soybean rust disease rating; type: in vivo; conditions: Phakopsora pachyrhizi, 216 h, 50 ppm, 100 = 100% disease control, 0 = no control
Procedure, shortened: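 Seedlings of soybean were challenged with rust spores one day after a run-off spray of test suspension (acetone/water 50/50, 50–250 ppm PEG400); after 24 h saturated humidity and 8 days growth, both at 22° C, disease was scored visually.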

[1] = system: Blumeria graminis f. sp. Tritici; assay: Test C: preventive spray on wheat seedlings, wheat powdery mildew disease rating; type: in vivo; conditions: Blumeria graminis, 192 h, 50 ppm, 100 = 100% disease control, 0 = no control
Procedure, shortened: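 Disease control scored visually after 8 days at 20° C, on a 0–100 scale versus untreated controls. Seedlings had received a preventive run-off spray one day before dusting with powdery mildew spores; compounds were suspended in acetone/water (50/50) containing 50–250 ppm PEG400.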

Alternaria solani = assay: Test F: preventive spray on tomato seedlings, tomato early blight disease rating; type: in vivo; conditions: Alternaria solani, 120 h, 50 ppm, 100 = 100% disease control, 0 = no control
Procedure, shortened: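 Preventive test: a day after run-off spraying with acetone/water–PEG400 suspensions (ppm), seedlings received an A. solani spore inoculum. Incubation was 48 h at 27 °C in saturated air followed by 3 days in a 20 °C chamber. Visual scores express percent disease control versus untreated plants (0–100).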

Botrytis cinerea = assay: Test E: preventive spray on tomato seedlings, tomato Botrytis disease rating; type: in vivo; conditions: Botrytis cinerea, 120 h, 50 ppm, 100 = 100% disease control, 0 = no control
Procedure, shortened: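 Preventive test: one day after spraying seedlings to run-off with test suspension (ppm in acetone/water, 50–250 ppm PEG400), B. cinerea spores applied. Incubation 48 h at 20 °C saturated humidity plus 3 days at 24 °C preceded visual rating as percent disease control versus controls.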

Zymoseptoria tritici = assay: Test A: preventive spray on wheat seedlings, wheat leaf blotch disease rating; type: in vivo; conditions: Zymoseptoria tritici, 456 h, 50 ppm, 100 = 100% disease control, 0 = no control
Procedure, shortened: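 Disease scored after 17 days in a 20 °C growth chamber, following 48 h at 24 °C in saturated air after spore inoculation with Z. tritici. Inoculation came one day after wheat seedlings were sprayed to run-off with test suspension (acetone/water 50/50, 50–250 ppm PEG400).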

[2] = system: Puccinia recondita f. sp. Tritici; assay: Test B: preventive spray on wheat seedlings, wheat leaf rust disease rating; type: in vivo; conditions: Puccinia recondita, 192 h, 50 ppm, 100 = 100% disease control, 0 = no control
Procedure, shortened: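 Preventive test: one day after spraying wheat seedlings to run-off with ppm suspensions (acetone/water 1:1, 50-250 ppm PEG400), leaf rust spores were applied. Incubation was 24 h at saturation then 7 days at 20° C.; disease scored 0-100% control relative to untreated.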

Q: What does the source list for `COc1ccc(Cl)c(-n2nc(C)c(=O)c(Cl)c2-c2ccc(F)cc2)c1` [Compound 105, 5-chloro-1-(2-chloro-5-methoxyphenyl)-6-(4-fluorophenyl)-3-methyl-4(1H)-pyridazinone]?
A: pest or weed control at 50 ppm (Phakopsora pachyrhizi): 96%; pest or weed control at 50 ppm [1]: 95%; pest or weed control at 50 ppm (Alternaria solani): 100%; pest or weed control at 50 ppm (Botrytis cinerea): 98%; pest or weed control at 50 ppm (Zymoseptoria tritici): 100%; pest or weed control at 50 ppm [2]: 100%; melting point: 207 to 210 °C

Q: For `COc1cc(OC)c(Cl)c(-c2cc(C#N)c(=O)n(C)c2-c2ccc(F)cc2Cl)c1` [Compound 156, 5-(2-chloro-3,5-dimethoxyphenyl)-6-(2-chloro-4-fluorophenyl)-1,2-dihydro-1-methyl-2-oxo-3-pyridinecarbonitrile], which pest or weed control at 50 ppm (Phakopsora pachyrhizi) is on record?
A: 99%

Q: What about the pest or weed control at 50 ppm [1] of the same molecule?
A: 98%

Q: And the pest or weed control at 50 ppm (Alternaria solani)?
A: 91%

Q: What about the pest or weed control at 50 ppm (Botrytis cinerea) of the same molecule?
A: 98%

Q: What about the pest or weed control at 50 ppm (Zymoseptoria tritici) of the same molecule?
A: 100%

Q: What about the pest or weed control at 50 ppm [2] of the same molecule?
A: 100%

Q: What about the melting point of the same molecule?
A: 209 to 211 °C

Q: Which pest or weed control at 50 ppm (Phakopsora pachyrhizi) does the source give for `CCn1c(-c2ccc(F)cc2Cl)c(-c2cc(OC)cc(OC)c2Cl)cc(C#N)c1=O` [Compound 157, 5-(2-chloro-3,5-dimethoxyphenyl)-6-(2-chloro-4-fluorophenyl)-1,2-dihydro-1-ethyl-2-oxo-3-pyridinecarbonitrile] here?
A: 97%

Q: And the pest or weed control at 50 ppm [1]?
A: 96%

Q: What about the pest or weed control at 50 ppm (Alternaria solani) of the same molecule?
A: 98%

Q: And the pest or weed control at 50 ppm (Botrytis cinerea)?
A: 99%

Q: What about the pest or weed control at 50 ppm (Zymoseptoria tritici) of the same molecule?
A: 100%

Q: What about the pest or weed control at 50 ppm [2] of the same molecule?
A: 100%

Q: And the melting point?
A: 100 to 103 °C

Source: patent publication US20240308968A1, “FUNGICIDAL SUBSTITUTED HETEROCYCLES” (FMC Corporation, priority 2021, published 2024)
